Test results: ChEMBL document CHEMBL3751687, “Design and synthesis of calindol derivatives as potent and selective calcium sensing receptor agonists” (Bioorg Med Chem, 2016)
The source made the active and inactive calls. No cut-off for these calls is given here.

What was measured:
[1] = molecular target: T1, Extracellular calcium-sensing receptor (Rattus norvegicus) (UniProt P48442); assay: Agonist activity at rat brain CaSR expressed in CHO cells assessed as inositol phosphate production at 3 uM in presence of 3 mM extracellular Ca2+ by IP-one assay; assay type: functional, cell-based
T1 sequence (whole entry): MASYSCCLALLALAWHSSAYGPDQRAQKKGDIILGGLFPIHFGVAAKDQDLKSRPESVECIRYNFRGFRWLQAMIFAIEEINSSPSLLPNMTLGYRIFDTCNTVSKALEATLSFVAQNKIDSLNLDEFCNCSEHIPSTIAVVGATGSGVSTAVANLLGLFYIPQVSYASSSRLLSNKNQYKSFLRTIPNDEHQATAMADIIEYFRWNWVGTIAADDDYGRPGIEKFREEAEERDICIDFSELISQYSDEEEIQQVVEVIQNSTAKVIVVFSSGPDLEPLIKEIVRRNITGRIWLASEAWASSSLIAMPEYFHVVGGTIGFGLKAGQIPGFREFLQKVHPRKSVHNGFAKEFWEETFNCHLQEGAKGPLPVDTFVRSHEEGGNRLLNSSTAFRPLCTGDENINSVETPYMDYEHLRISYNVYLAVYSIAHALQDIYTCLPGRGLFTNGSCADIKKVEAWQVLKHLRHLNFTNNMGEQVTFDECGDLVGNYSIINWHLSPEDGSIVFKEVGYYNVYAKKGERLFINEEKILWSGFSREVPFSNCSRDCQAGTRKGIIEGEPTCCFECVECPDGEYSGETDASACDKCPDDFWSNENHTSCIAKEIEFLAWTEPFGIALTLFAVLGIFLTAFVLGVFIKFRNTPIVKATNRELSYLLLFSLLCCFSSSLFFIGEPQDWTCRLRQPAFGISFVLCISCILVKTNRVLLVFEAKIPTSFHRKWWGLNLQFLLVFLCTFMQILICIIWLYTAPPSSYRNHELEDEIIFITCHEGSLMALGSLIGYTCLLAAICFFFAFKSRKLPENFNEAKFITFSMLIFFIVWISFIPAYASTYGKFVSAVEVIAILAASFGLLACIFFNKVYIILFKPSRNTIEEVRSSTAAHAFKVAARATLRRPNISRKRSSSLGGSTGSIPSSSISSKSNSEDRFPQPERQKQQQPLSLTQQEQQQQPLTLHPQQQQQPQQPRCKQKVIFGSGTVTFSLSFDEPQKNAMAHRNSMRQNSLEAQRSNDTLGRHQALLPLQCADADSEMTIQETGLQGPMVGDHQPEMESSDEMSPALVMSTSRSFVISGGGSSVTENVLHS

[2] = molecular target: T1, Extracellular calcium-sensing receptor (Rattus norvegicus); assay: Agonist activity at rat brain CaSR expressed in CHO cells assessed as inositol phosphate production at 10 uM in presence of 2 mM extracellular Ca2+ by IP-one assay; assay type: functional, cell-based
[3] = molecular target: T1, Extracellular calcium-sensing receptor (Rattus norvegicus); assay: Agonist activity at rat brain CaSR expressed in CHO cells assessed as inositol phosphate production at 3 uM in presence of 2 mM extracellular Ca2+ by IP-one assay; assay type: functional, cell-based
[4] = tested on: HEK293; assay: Effect on inositol phosphate production in HEK293 cells in absence of L-Ornithine; assay type: ADME, cell-based; conditions: human
[5] = molecular target: T2, G-protein coupled receptor family C group 6 member A (Mus musculus) (UniProt Q8K4Z6); assay: Inhibition of L-Ornithine-stimulated wild type mouse GPRC6A expressed in HEK293 cells coexpressing GalphaqG66D assessed as increase in [3H] inositol phosphate production at 10 uM incubated for 30 mins in presence of 2 mM extracellular Ca2+; assay type: functional, cell-based
T2 sequence (whole entry): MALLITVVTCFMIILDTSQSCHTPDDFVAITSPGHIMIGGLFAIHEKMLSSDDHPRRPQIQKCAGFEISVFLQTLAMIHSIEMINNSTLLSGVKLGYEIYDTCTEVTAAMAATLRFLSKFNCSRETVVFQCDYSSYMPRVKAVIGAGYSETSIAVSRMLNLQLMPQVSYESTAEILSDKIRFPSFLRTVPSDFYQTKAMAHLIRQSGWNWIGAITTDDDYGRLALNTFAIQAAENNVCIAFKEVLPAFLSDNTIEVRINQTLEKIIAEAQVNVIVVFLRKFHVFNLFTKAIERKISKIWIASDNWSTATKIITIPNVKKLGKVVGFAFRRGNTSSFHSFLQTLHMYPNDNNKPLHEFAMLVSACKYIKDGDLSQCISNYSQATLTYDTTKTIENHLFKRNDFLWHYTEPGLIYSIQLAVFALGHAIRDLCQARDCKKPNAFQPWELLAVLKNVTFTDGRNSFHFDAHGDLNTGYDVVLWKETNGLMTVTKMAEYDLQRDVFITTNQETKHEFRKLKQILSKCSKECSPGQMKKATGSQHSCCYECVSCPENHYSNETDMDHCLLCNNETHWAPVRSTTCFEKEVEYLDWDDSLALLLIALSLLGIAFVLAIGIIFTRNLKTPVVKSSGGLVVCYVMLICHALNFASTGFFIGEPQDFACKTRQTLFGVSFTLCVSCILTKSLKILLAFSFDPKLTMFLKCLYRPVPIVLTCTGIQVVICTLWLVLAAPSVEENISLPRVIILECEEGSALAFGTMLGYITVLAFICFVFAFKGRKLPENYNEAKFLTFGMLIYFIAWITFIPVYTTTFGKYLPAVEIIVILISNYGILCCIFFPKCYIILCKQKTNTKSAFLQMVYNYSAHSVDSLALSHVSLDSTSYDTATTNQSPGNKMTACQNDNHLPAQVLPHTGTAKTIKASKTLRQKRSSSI

[6] = molecular target: T3, Extracellular calcium-sensing receptor (Rattus norvegicus, UniProt P48442); assay: Agonist activity at rat brain CaSR expressed in CHO cells assessed as inositol phosphate production in presence of 3 mM extracellular Ca2+ by IP-one assay; assay type: functional, cell-based
T3 sequence (P48442 whole entry): T1 sequence (whole entry)

[7] = molecular target: T1, Extracellular calcium-sensing receptor (Rattus norvegicus); assay: Agonist activity at rat brain CaSR expressed in CHO cells assessed as inositol phosphate production at 10 uM in presence of 3 mM extracellular Ca2+ by IP-one assay; assay type: functional, cell-based
[8] = molecular target: T1, Extracellular calcium-sensing receptor (Rattus norvegicus); assay: Agonist activity at rat brain CaSR expressed in CHO cells assessed as inositol phosphate production at 0.1 uM in presence of 3 mM extracellular Ca2+ by IP-one assay; assay type: functional, cell-based

| Structure (SMILES) | Activity [1] [%] | Activity [2] [%] | other results |
| --- | --- | --- | --- |
| C[C@@H](NCc1[nH]c2ccccc2c1Br)c1cccc2ccccc12 | 21 | – | – |
| COc1cc2cc(CN[C@H](C)c3cccc4ccccc34)[nH]c2c(OC)c1OC | 40 | – | – |
| C[C@@H](NCc1cc2cc(OCc3ccccc3)ccc2[nH]1)c1cccc2ccccc12 | 23 | – | – |
| COc1cccc2[nH]c(CN[C@H](C)c3cccc4ccccc34)cc12 | – | 95 | Activity [3]: 63% |
| CC(NCc1cc2ccccc2[nH]1)c1cccc(Br)c1 (racemic) | 49 | – | – |
| COc1cccc([C@@H](C)NCc2cc3ccccc3[nH]2)c1 | – | 54 | – |
| C[C@@H](NCc1cc2cc(S(C)(=O)=O)ccc2[nH]1)c1cccc2ccccc12 | 54 | – | – |
| Cc1ccc2[nH]c(CN[C@H](C)c3cccc4ccccc34)cc2c1 | – | 69 | Activity [3]: 1% |
| C[C@@H](NCc1cc2cc(F)ccc2[nH]1)c1cccc2ccccc12 | – | 74 | Activity [3]: 30% |
| COc1cc(OC)c2cc(CN[C@H](C)c3cccc4ccccc34)[nH]c2c1 | – | 94 | Activity [3]: 53% |
| COc1ccc([C@@H](C)NCc2cc3ccccc3[nH]2)cc1 | – | 27 | – |
| COc1ccc2cc(CN[C@H](C)c3cccc4ccccc34)[nH]c2c1 | – | 76 | Activity [3]: 33% |
| C[C@@H](NCc1cc2cccc([N+](=O)[O-])c2[nH]1)c1cccc2ccccc12 | 102 | – | Activity [4]: Non-toxic; inhibition [5]: inactive; Activity [8]: 70%; EC50 [6]: 20 nM |
| C[C@@H](NCc1cc2cccc(-c3ccccc3)c2[nH]1)c1cccc2ccccc12 | 79 | – | – |
| C[C@@H](NCc1[nH]c2ccccc2c1-c1ccccc1)c1cccc2ccccc12 | – | – | Activity [7]: 55% |
| C[C@@H](NC1CCCc2c1[nH]c1ccccc21)c1cccc2ccccc12 (mixture of isomers) | – | – | Activity [7]: 67% |
| C[C@@H](NCc1cc2cc(O)ccc2[nH]1)c1cccc2ccccc12 | 92 | – | EC50 [6]: 112 nM |
| C[C@@H](NCc1cc2cccc(O)c2[nH]1)c1cccc2ccccc12 | 55 | – | Activity [7]: 83% |
| CC(NCc1cc2ccccc2[nH]1)c1ccccc1O (racemic) | 1 | – | Activity [7]: 1% |
| C[C@@H](NCc1cc2cc([N+](=O)[O-])ccc2[nH]1)c1cccc2ccccc12 | 30 | – | – |

The next lines start with results.

| Activity [1] [%] | Activity [2] [%] | Structure (SMILES) | other results |
| --- | --- | --- | --- |
| – | 34 | C[C@@H](NCc1cc2ccccc2[nH]1)c1ccccc1 | – |
| 89 | – | CC(NCc1cc2ccccc2[nH]1)c1ccc(F)c2ccccc12 (racemic) | Activity [4]: Non-toxic; inhibition [5]: inactive; EC50 [6]: 131 nM |
| – | 29 | Cc1ccc([C@@H](C)NCc2cc3ccccc3[nH]2)cc1 | – |
| 2 | – | CC(NCc1cc2ccccc2[nH]1)c1ccc(-c2ccccc2)cc1 (racemic) | Activity [7]: 1% |
| 88 | – | C[C@@H](NCc1cc2c(O)cccc2[nH]1)c1cccc2ccccc12 | EC50 [6]: 102 nM |
| 83 | 103 | C[C@@H](NCc1cc2ccccc2[nH]1)c1cccc2ccccc12 [CALINDOL] | Activity [7]: 100%; inhibition [5]: 35%; EC50 [6]: 132 nM; Activity [3]: 73% |
| 30 | – | C[C@@H](NCc1cc2ccccc2[nH]1)c1ccc(F)cc1 | – |
| 85 | – | C[C@@H](NCc1cc2c(-c3ccccc3)cccc2[nH]1)c1cccc2ccccc12 | Activity [4]: Non-toxic; Activity [7]: 102%; inhibition [5]: inactive; EC50 [6]: 136 nM |
| 26 | – | C[C@@H](NCc1cc2ccccc2[nH]1)c1ccc(Br)cc1 | – |
